Measured values reported in ChEMBL document CHEMBL1201862, “PubChem BioAssay data set” (2004).
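Compound exposure: 48 hours, 5 concentrations, 96-well plates. Abbreviation: GI50, concentration required for 50% inhibition of growth.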 Active and inactive are the calls of the source. Rule as the data show it: active = GI50 up to about 1.1 µM and inactive = higher. Where a SMILES comes first, the peptide text is derived from it. Bridges are numbered along the chain shown (N, C = ends). [ ]: non-standard residue; d: D form. The star is where a group is joined. ξ: configuration not given here. X28 = O=C(/C=C/C=C/C=C/C=C/C=C/C(=O)*)NC1=C(O)CCC1=O; NMeA = CN[C@@H](C)C(=O)O; ξF = NC(Cc1ccccc1)C(=O)O; ξA = CC(N)C(=O)O

Experiments:
Experiment in all cases: NCI tumour cell line growth inhibition, 48 h
A549 = test system: A549
CAKI-1 = test system: CAKI-1
DU-145 = test system: DU-145
EKVX = test system: EKVX
HCT-15 = test system: HCT-15
HL-60 = test system: HL-60
IGROV-1 = test system: IGROV-1
KM12 = test system: KM12
LOX IMVI = test system: LOX IMVI
MDA-MB-231 = test system: MDA-MB-231
MDA-N = test system: MDA-N
MOLT-4 = test system: MOLT-4
NCI-H226 = test system: NCI-H226
OVCAR-4 = test system: OVCAR-4
RPMI-8226 = test system: RPMI-8226
RXF 393 = test system: RXF 393
SN12C = test system: SN12C
SNB-19 = test system: SNB-19
SNB-75 = test system: SNB-75
T47D = test system: T47D

SMILES | GI50 (A549) | GI50 (CAKI-1) | GI50 (DU-145) | GI50 (EKVX) | GI50 (HCT-15) | GI50 (HL-60) | GI50 (IGROV-1) | GI50 (KM12) | GI50 (LOX IMVI) | GI50 (MDA-MB-231) | GI50 (MDA-N) | GI50 (MOLT-4) | GI50 (NCI-H226) | GI50 (OVCAR-4) | GI50 (RPMI-8226) | GI50 (RXF 393) | GI50 (SN12C) | GI50 (SNB-19) | GI50 (SNB-75) | GI50 (T47D)
CC(=O)OCC1OC(n2c(-c3ccc(C)cc3)cc(-c3ccco3)c(C#N)c2=S)C(OC(C)=O)C(OC(C)=O)C1OC(C)=O (stereo not given) | 69.5 µM (inactive) | > 100 µM (inactive) | > 100 µM (inactive) | > 100 µM (inactive) | > 100 µM | > 100 µM (inactive) | 98.4 µM (inactive) | > 100 µM (inactive) | > 100 µM (inactive) | 22.9 µM (inactive) | > 100 µM (inactive) | > 100 µM (inactive) | 25.2 µM (inactive) | > 100 µM (inactive) | > 100 µM (inactive) | 40.6 µM (inactive) | > 100 µM (inactive) | 32.5 µM (inactive) | 25.1 µM (inactive) | 20.6 µM (inactive)
NP(=O)(Oc1c2occc2cc2ccc(=O)oc12)N(CCCl)CCCl (stereo not given) | 62.2 µM (inactive) | > 100 µM (inactive) | > 100 µM (inactive) | > 100 µM (inactive) | > 100 µM | 70.1 µM (inactive) | > 100 µM (inactive) | > 100 µM (inactive) | 37.6 µM (inactive) | > 100 µM (inactive) | > 100 µM (inactive) | 28.8 µM (inactive) | 74.5 µM (inactive) | > 100 µM (inactive) | 89.7 µM (inactive) | 0.0611 µM (active) | > 100 µM (inactive) | > 100 µM (inactive) | – | 48.5 µM (inactive)
COc1ccccc1/N=C1\SCCN1C(=S)Nc1ccc(S(=O)(=O)/N=C/N(C)C)cc1 | > 100 µM (inactive) | 33.7 µM (inactive) | 29.6 µM (inactive) | 20.9 µM (inactive) | 31.6 µM | 27.4 µM (inactive) | – | > 100 µM (inactive) | 29.9 µM (inactive) | > 100 µM (inactive) | 26.5 µM (inactive) | 22.6 µM (inactive) | > 100 µM (inactive) | 43.2 µM (inactive) | 21.6 µM (inactive) | 16.6 µM (inactive) | 50.9 µM (inactive) | > 100 µM (inactive) | 29.6 µM (inactive) | 25.8 µM (inactive)
Nc1nc(O)c2ncn(C3C=CC(CO)C3)c2n1 (stereo not given) | > 100 µM (inactive) | > 100 µM (inactive) | > 100 µM (inactive) | > 100 µM (inactive) | > 100 µM | – | > 100 µM (inactive) | > 100 µM (inactive) | – | > 100 µM (inactive) | > 100 µM (inactive) | – | > 100 µM (inactive) | > 100 µM (inactive) | > 100 µM (inactive) | > 100 µM (inactive) | > 100 µM (inactive) | > 100 µM (inactive) | > 100 µM (inactive) | > 100 µM (inactive)
CCOC(=O)CNC(=O)C(CSC(=O)N(O)c1ccc(Br)cc1)NC(=O)CCC(N)C(=O)OCC (stereo not given) | > 50 µM (inactive) | > 50 µM (inactive) | > 50 µM (inactive) | > 50 µM (inactive) | > 50 µM | 0.005 µM (active) | > 50 µM (inactive) | 45.8 µM (inactive) | 40.1 µM (inactive) | > 50 µM (inactive) | > 50 µM (inactive) | 2.96 µM (inactive) | > 50 µM (inactive) | > 50 µM (inactive) | 21 µM (inactive) | > 50 µM (inactive) | > 50 µM (inactive) | > 50 µM (inactive) | – | > 50 µM (inactive)
CC(C1CCCC1=O)C1CCCC1=O (stereo not given) | > 100 µM (inactive) | > 100 µM (inactive) | > 100 µM (inactive) | > 100 µM (inactive) | > 100 µM | > 100 µM (inactive) | > 100 µM (inactive) | > 100 µM (inactive) | > 100 µM (inactive) | > 100 µM (inactive) | > 100 µM (inactive) | > 100 µM (inactive) | > 100 µM (inactive) | > 100 µM (inactive) | – | > 100 µM (inactive) | > 100 µM (inactive) | > 100 µM (inactive) | > 100 µM (inactive) | > 100 µM (inactive)
CC1NC(=O)[C@H](C)N(C)C(=O)[C@@H]2CCCN2C(=O)[C@@H](NC(=O)C(Cc2ccccc2)NC(=O)/C=C/C=C/C=C/C=C/C=C/C(=O)NC2=C(O)CCC2=O)COC(=O)[C@@H]2CCCN2C1=O (stereo not given in full) (X28-[ξF]SP[NMeA][ξA]P; ester 2-C) | > 100 µM (inactive) | 40.4 µM (inactive) | 89.3 µM (inactive) | 96.4 µM (inactive) | > 100 µM | > 100 µM (inactive) | > 100 µM (inactive) | 58.9 µM (inactive) | > 100 µM (inactive) | 22.7 µM (inactive) | > 100 µM (inactive) | – | – | > 100 µM (inactive) | > 100 µM (inactive) | 35.5 µM (inactive) | > 100 µM (inactive) | > 100 µM (inactive) | 64.3 µM (inactive) | > 100 µM (inactive)
CC[C@H]1CN(C)[C@H]2Cc3c([nH]c4ccccc34)C(=O)C[C@H]1C2C(=O)OC (stereo not given in full) | > 100 µM (inactive) | – | > 100 µM (inactive) | > 100 µM (inactive) | > 100 µM | 68.9 µM (inactive) | > 100 µM (inactive) | > 100 µM (inactive) | > 100 µM (inactive) | > 100 µM (inactive) | > 100 µM (inactive) | 73.6 µM (inactive) | > 100 µM (inactive) | > 100 µM (inactive) | 57.8 µM (inactive) | > 100 µM (inactive) | > 100 µM (inactive) | > 100 µM (inactive) | – | > 100 µM (inactive)
CCOc1ccc(NC(=O)C(=O)C(/C(=N/N)C(=O)OC)c2nc3ccc([N+](=O)[O-])cc3nc2O)cc1 (stereo not given) | > 100 µM (inactive) | > 100 µM (inactive) | > 100 µM (inactive) | > 100 µM (inactive) | > 100 µM | – | > 100 µM (inactive) | > 100 µM (inactive) | > 100 µM (inactive) | > 100 µM (inactive) | > 100 µM (inactive) | > 100 µM (inactive) | > 100 µM (inactive) | > 100 µM (inactive) | 24.2 µM (inactive) | 36.1 µM (inactive) | > 100 µM (inactive) | > 100 µM (inactive) | > 100 µM (inactive) | > 100 µM (inactive)
O=C(Sc1c(-c2ccccc2)c(=O)n(-c2ccccc2)c(=S)n1-c1ccccc1)c1ccc(Cl)cc1 | > 100 µM (inactive) | > 100 µM (inactive) | > 100 µM (inactive) | > 100 µM (inactive) | > 100 µM | > 100 µM (inactive) | 63 µM (inactive) | > 100 µM (inactive) | > 100 µM (inactive) | 55.8 µM (inactive) | > 100 µM (inactive) | 49.3 µM (inactive) | > 100 µM (inactive) | > 100 µM (inactive) | – | > 100 µM (inactive) | > 100 µM (inactive) | > 100 µM (inactive) | > 100 µM (inactive) | 71 µM (inactive)
CC1=NN=C(N)N/C1=C\C(Sc1ccc(Cl)cc1)c1ccc([N+](=O)[O-])cc1 (stereo not given) | > 100 µM (inactive) | > 100 µM (inactive) | > 100 µM (inactive) | 71.8 µM (inactive) | 94 µM | 32.8 µM (inactive) | 39.1 µM (inactive) | 94 µM (inactive) | 51.8 µM (inactive) | > 100 µM (inactive) | 89.1 µM (inactive) | 93.5 µM (inactive) | 20.8 µM (inactive) | > 100 µM (inactive) | 35.6 µM (inactive) | > 100 µM (inactive) | 81.1 µM (inactive) | > 100 µM (inactive) | – | > 100 µM (inactive)
O=C1C(Cl)=C(N2C(=O)CCC2=O)C(=O)c2ccccc21 | 31.8 µM (inactive) | 19.1 µM (inactive) | 32.7 µM (inactive) | 34.2 µM (inactive) | 13.2 µM | 2.51 µM (inactive) | 44.4 µM (inactive) | 41.8 µM (inactive) | 27.3 µM (inactive) | 27.5 µM (inactive) | 19.4 µM (inactive) | 50.7 µM (inactive) | > 100 µM (inactive) | – | – | 18.5 µM (inactive) | 17.9 µM (inactive) | 52.6 µM (inactive) | > 100 µM (inactive) | 32.4 µM (inactive)
C[C@@H](NC(=O)OC1C=CC2(CC1)C(=O)N(C)c1ccccc12)c1cccc2ccccc12 (stereo not given in full) | 12.8 µM (inactive) | > 25 µM (inactive) | > 25 µM (inactive) | 12 µM (inactive) | 14.9 µM | 0.944 µM (active) | 4.86 µM (inactive) | 11.6 µM (inactive) | 19.7 µM (inactive) | > 25 µM (inactive) | 15.5 µM (inactive) | 5.93 µM (inactive) | 21.8 µM (inactive) | 16.3 µM (inactive) | 8.79 µM (inactive) | – | > 25 µM (inactive) | > 25 µM (inactive) | 21.5 µM (inactive) | 7.26 µM (inactive)
O=C(c1cccs1)N(C(=O)N1CCC(c2ccccc2)CC1)c1ccccc1 | – | > 100 µM (inactive) | > 100 µM (inactive) | 7.67 µM (inactive) | 28.1 µM | 28.8 µM (inactive) | 14.7 µM (inactive) | 14.4 µM (inactive) | 41.5 µM (inactive) | > 100 µM (inactive) | 43.8 µM (inactive) | 34.8 µM (inactive) | 34 µM (inactive) | – | 12.6 µM (inactive) | 16.8 µM (inactive) | 62.2 µM (inactive) | > 100 µM (inactive) | – | 26.1 µM (inactive)
